Test results as given in patent US9718770B2, “Substituted thioureas as heat shock protein 70 inhibitors” (Institute of Pharmacology and Toxicology Academy of …, priority 2013, dated 2017).

Tests used:
Hsp70 ATPase = target: T1, Hsp70 ATPase (Homo sapiens, UniProt P0DMV8); assay: Inhibition of Hsp70 ATPase activity (malachite green); type: biochemical; details: 200 μM; repeated screening carried out twice; Hsp70/Hsp40, 1 mM ATP; read-out: Inhibitory rate (%) on activity of Hsp70 ATPase
T1 construct: made in house; host or cells: E. coli
T1 sequence (P0DMV8 2-641 limits assumed): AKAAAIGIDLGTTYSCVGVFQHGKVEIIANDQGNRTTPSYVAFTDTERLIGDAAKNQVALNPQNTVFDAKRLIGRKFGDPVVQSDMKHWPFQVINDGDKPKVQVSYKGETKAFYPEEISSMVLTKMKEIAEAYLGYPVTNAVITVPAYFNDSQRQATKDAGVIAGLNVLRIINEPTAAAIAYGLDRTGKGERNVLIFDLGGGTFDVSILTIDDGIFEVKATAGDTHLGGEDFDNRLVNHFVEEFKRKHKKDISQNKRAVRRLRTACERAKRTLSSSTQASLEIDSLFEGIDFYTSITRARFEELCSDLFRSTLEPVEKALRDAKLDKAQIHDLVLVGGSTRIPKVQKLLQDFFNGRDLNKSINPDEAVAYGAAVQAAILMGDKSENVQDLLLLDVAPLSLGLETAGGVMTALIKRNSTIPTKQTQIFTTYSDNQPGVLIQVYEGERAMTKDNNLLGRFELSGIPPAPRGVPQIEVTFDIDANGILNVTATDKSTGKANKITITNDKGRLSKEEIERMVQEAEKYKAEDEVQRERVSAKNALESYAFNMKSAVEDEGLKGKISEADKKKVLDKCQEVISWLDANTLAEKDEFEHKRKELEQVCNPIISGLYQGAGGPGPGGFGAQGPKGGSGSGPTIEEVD
Method: (1) Protein: Humanized Hsp70, Hsp40, expressed by E. coli.
(2) Sample to be tested: 26 compound solids with different colors and states. Positive drugs AZ (CAS:1054543-47-3) and VER 155008 (CAS: 1134156-31-2) were synthesized in the laboratory.
(4) ATPase Assay buffer: • 0.017% Triton X-100; • 100 mM Tris-HCl; • 20 mM KCl; • 6 mM MgCl2, pH 7.4.
1) 13.08 μl DnaK (0.15 mg/mL, 2.14 μM), 1.96 μl DnaJ (1 mg/mL, 25 μM) were dissolved in 7.96 μl Assay Buffer (0.017% Triton X-100, 100 mM Tris-HCl, 20 mM KCl, and 6 mM MgCl2, pH 7.4), and the resultant solution was added to each well of the 96 well plate;
2) to each well of the 96 well plate, 1 μL sample to be tested (5 mM) or DMSO (solvent) was added, and vortexed with a Vortex agitator for 10 min; and then standing at 37° C. for 30 min;
3) to each well, 1 μL 25 mM ATP was added, to trigger the enzymatic reaction; (in each well, the final reaction volume was 25 μL, the final concentration of DnaK was 1.12 μM, the final concentration of DnaJ was 1.96 μM, the final concentration of DMSO was 4%, the final concentration of Triton X-100 was 0.01%, the final concentration of ATP was 1 mM, and the final concentration of sample to be tested was 200 μM), the enzymatic reaction was carried out at 37° C. for 3 h;
4) 80 μL Malachite green staining solution was then added to each well, and was vortexed gently;
5) 10 μL of 34% citrate sodium was then added immediately, and vortexed gently, to stop the ATP hydrolysis not caused by ATPase;
6) the resultant mixture was mixed thoroughly at 37° C. for 15 min, and OD620 was measured.
The inhibitory rate of Hsp70 ATPase activity is calculated in accordance with the following formula: Inhibitory rate (%)=(DMSO well OD−Experimental well OD)/(DMSO well OD−Blank well OD)×100
Criteria for preliminary screening: during preliminary screening, an example compound is regarded as effective in inhibition as long as its inhibitory rate is above 20% for Hsp70 ATPase at 200 μM.

BT474 = assay: CDI of example compounds and Lapatinib (ATPlite cell survival); type: cell-based; parameters: key: CDI = AB/(A×B); <1 synergistic; details: compound 5 μM + Lapatinib 1 μM, 72 h; Lapatinib-sensitive human breast cancer cells; CDI<1 synergistic, <0.7 very significant, >1 antagonistic
Method: (§1) Cells: (BT474 and SK-BR3 are Lapatinib-sensitive human breast cancer cell strains; BT/LapR and SK/LapR are secondary Lapatinib-resistant human breast cancer cell strains upon Lapatinib stimulation; MDA-MB-361 and MDA-MB-453 are natural Lapatinib-resistant human breast cancer cell strains. BT474, MDA-MB-361, SK-BR3 and MDA-MB-453 are from American Type Culture Collection (ATCC))
(§2) In a 100 mm culture dish full of adherent cells, digestion with 1 ml 0.25% pancreatin (GIBCO) was carried out at 37° C. for 5 min, and the reaction was stopped with 2 ml medium (containing 10% FBS, GIBCO). The cells were dispersed and collected. After cell count, the cells were diluted to a concentration of 1×10^5 cells/ml, and were seeded to a 96-well plate at 50 μl/well, 5000 cell/well, 60 wells in total, PBS instead of cells was added to the wells of the outmost circle, and the incubation was carried out at 37° C. for 24 h for adherence.
(§3) For the sample group, samples to be tested were diluted with DMSO to a final concentration of 5 μM; to control wells, the medium containing the same concentration of solvent corresponding to the compound was added, the concentrations of the compounds were identical in each well, 5 wells in parallel were set for each concentration, 25 μL/well, and 25 μL medium was added to each well (for the combination group, 25 μL Lapatinib was added to reach a final concentration of 1 μM). The incubation was carried out at 37° C. for 72 h.
(§4) To each well, 50 μL ATPlite kit substrate solution was added. The plate was under shaking for 3 min, and was then placed in dark for 10 min. The lysis supernatant was drawn at 100 μL/well, and placed in a luminescent plate. The incubated luminescent plate was placed in an iluminescence apparatus, and the iluminescent value was read.
(§5) Data Processing Cell survival rate (%)=Experimental group RLU/control group RLU×100%
(§6) Coefficient of drug interaction (CDI) is used to evaluate the interaction of two drugs, CDI is calculated in accordance with the following formula: CDI=AB/(A×B)×100%. The calculation is performed according to the number of live cells (luminescent value), if CDI<1, the two drugs have a synergistic effect; if CDI<0.7, the synergistic effect is very significant; if CDI=1, the effect of the two drugs in combination is the sum of the effects of the two drugs; if CDI>1, the two drugs have an antagonistic effect.

SK-BR3 = assay: as above; type: cell-based; parameters: key: CDI = AB/(A×B); <1 synergistic; details: compound 5 μM + Lapatinib 1 μM, 72 h; Lapatinib-sensitive human breast cancer cells; CDI<1 synergistic
Method: as §1, §2, §3, §4, §5, §6

MDA-MB-453 = assay: as above; type: cell-based; parameters: key: CDI = AB/(A×B); <1 synergistic; details: compound 5 μM + Lapatinib 1 μM, 72 h; natural Lapatinib-resistant human breast cancer cells; CDI<1 synergistic
Method: as §1, §2, §3, §4, §5, §6

MDA-MB-361 = assay: as above; type: cell-based; parameters: key: CDI = AB/(A×B); <1 synergistic; details: compound 5 μM + Lapatinib 1 μM, 72 h; natural Lapatinib-resistant human breast cancer cells; CDI<1 synergistic
Method: as §1, §2, §3, §4, §5, §6

BT/Lap^R1.0 = assay: as above; type: cell-based; details: compound 5 μM + Lapatinib 1 μM, 72 h; secondary Lapatinib-resistant human breast cancer cells; CDI<1 synergistic
Method: as §1, §2, §3, §4, §5, §6

SK/Lap^R1.0 = assay: as above; type: cell-based; details: compound 5 μM + Lapatinib 1 μM, 72 h; secondary Lapatinib-resistant human breast cancer cells; CDI<1 synergistic
Method: as §1, §2, §3, §4, §5, §6

Row | Structure (SMILES) | inhibition at 200 µM (Hsp70 ATPase) [%] | CDI of example compounds and Lapatinib, BT474 (BT474) | CDI of example compounds and Lapatinib, SK-BR3 (SK-BR3) | CDI of example compounds and Lapatinib, MDA-MB-453 (MDA-MB-453) | CDI of example compounds and Lapatinib, MDA-MB-361 (MDA-MB-361) | CDI of example compounds and Lapatinib, BT/Lap^R1.0 (BT/Lap^R1.0) | CDI of example compounds and Lapatinib, SK/Lap^R1.0 (SK/Lap^R1.0)
1 | COc1cc(/C=C/C(=O)NC(CC(C)C)NC(=S)NC2CCCCC2)cc(OC)c1OC (centres unmarked) [Example 51, (2E)-N-[1-(3-cyclohexylthioureido)-3-methylbutyl]-3-(3,4,5-trimethoxyphenyl) acrylamide] | 46.2 | 0.73 | 0.96 | 1.27 | 1.09 | 0.94 | 1.38
2 | CNC(=S)NC(CC(C)C)NC(=O)/C=C/c1cc(OC)c(OC)c(OC)c1 (centres unmarked) [Example 43, (2E)-N-[3-methyl-1-(3-methylthioureido)butyl]-3-(3,4,5-trimethoxyphenyl) acrylamide] | 7.62 | 1.03 | 1 | 1.28 | 0.95 | 1 | 0.93
3 | COc1cc(/C=C/C(=O)NC(CC(C)C)NC(=S)Nc2cccnc2)cc(OC)c1OC (centres unmarked) [Example 25, (2E)-N-[3-methyl-1-(3-pyridin-3-ylthioureido)butyl]-3-(3,4,5-trimethoxyphenyl) acrylamide] | 38.5 | 0.94 | 1.04 | 1.2 | 0.93 | 0.97 | 0.93
4 | COc1ccc(NC(=S)NC(NC(=O)/C=C/c2cc(OC)c(OC)c(OC)c2)C(C)C)cc1 (centres unmarked) [Example 50, (2E)-N-{1-[3-(4-methoxyphenyl)thioureido]-2-methylpropyl}-3-(3,4,5-trimethoxyphenyl) acrylamide] | 28.8 | 1.02 | 1.06 | 1.4 | 0.97 | 1.02 | 0.96
5 | COc1cc(/C=C/C(=O)NC(NC(=S)Nc2cccnc2)C2CC2)cc(OC)c1OC (centres unmarked) [Example 29, (2E)-N-[cyclopropyl-(3-pyridin-3-ylthioureido)-methyl]-3-(3,4,5-trimethoxyphenyl) acrylamide] | 2.55 | 1.05 | 0.98 | 1.05 | 1 | 0.99 | 1.26

Continued, in another order:

Row | inhibition at 200 µM (Hsp70 ATPase) [%] | Structure (SMILES) | CDI of example compounds and Lapatinib, BT474 (BT474) | CDI of example compounds and Lapatinib, SK-BR3 (SK-BR3) | CDI of example compounds and Lapatinib, MDA-MB-453 (MDA-MB-453) | CDI of example compounds and Lapatinib, MDA-MB-361 (MDA-MB-361) | CDI of example compounds and Lapatinib, BT/Lap^R1.0 (BT/Lap^R1.0) | CDI of example compounds and Lapatinib, SK/Lap^R1.0 (SK/Lap^R1.0)
6 | 1.51 | O=C(/C=C/c1ccccc1)NC(NC(=S)Nc1ccccn1)C1CC1 (centres unmarked) [Example 37, (2E)-N-[cyclopropyl-(3-pyridin-2-ylthioureido)-methyl] cinnamamide] | 0.98 | 0.99 | 1.34 | 0.99 | 1.02 | 1.03
7 | 22.5 | O=C(/C=C/c1ccccc1)NC(NC(=S)Nc1ccccc1)C1CC1 (centres unmarked) [Example 41] | 0.91 | 1.09 | 1.07 | 0.91 | 0.99 | 1.02
8 | 21.4 | CC(C)(C)C(NC(=O)/C=C/c1ccccc1)NC(=S)NC1CCCCC1 (centres unmarked) [Example 56, N-[1-(3-cyclohexylthioureido)-2,2-dimethylpropyl] cinnamamide] | 0.77 | 1.19 | 1.32 | 0.96 | 1.21 | 1
9 | 65.4 | Cc1ccccc1NC(=S)NC(NC(=O)/C=C/c1ccccc1)C1CC1 (centres unmarked) [Example 49, N-[cyclopropyl-(3-o-methylphenylthioureido)-methyl] cinnamamide] | 0.9 | 1.08 | 1.2 | 0.95 | 0.96 | 0.99
10 | 19.3 | COc1cc(/C=C/C(=O)NC(NC(=S)Nc2ccccc2C)C2CC2)cc(OC)c1OC (centres unmarked) [Example 45, (2E)-N-[cyclopropyl-(3-o-methylphenylthioureido)-methyl]-3-(3,4,5-trimethoxyphenyl) acrylamide] | 1.59 | 1.05 | 0.98 | 0.93 | 0.79 | 1.04
11 | 18.4 | CC(C)(C)CC(NC(=O)/C=C/c1ccccc1)NC(=S)Nc1ccccc1 (centres unmarked) [Example 39, (2E)-N-[3,3-dimethyl-1-(3-phenylthioureido)butyl] cinnamamide] | 0.79 | 1.2 | 1.2 | 0.92 | 1.19 | 0.95
